Assay results published in patent US20260335282A1, “NOVEL 3-ARYLIDENE-2-INDOLINONE DERIVATIVES FOR THERAPEUTIC USE” (ISTANBUL UNIVERSITESI REKTORLUGU, priority 2022, published 2026).
Read-outs that look alike come from different tables or passages of the source.

Tests used:
MIAPaCa-2 cells = test: MTT cytotoxicity, pancreas cancer cells MIAPaCa-2; format: cell-based, human
Text: (§1) The cytotoxicity, general tyrosine kinase inhibitory effects and cell death (apoptosis/necrosis) assays of 1-benzyl-3-(1H-indol-3-ylmethylidene)-1,3-dihydro-2H-indol-2-one derivatives (Formula 5) of the present invention are studied by the following methods. […] HUVEC (human umbilical vein endothelial cell), MCF-10F (human breast epithelial cell) and Beas2b (human lung bronchial epithelial cell) cell lines have been used as healthy control cells in MTT experiments.
(§2) Beas2b (human lung bronchiole epithelial cell) and HEK293 (renal tubule epithelium) cells used as normal cell lines were cultured in RPMI medium, and HUVEC (human umbilical cord endothelial cells) and MCF-10F (human breast epithelial cell) cells are cultured in DMEM medium containing 100 µg/ml penicillin/streptomycin. The cells, which covered 70% of the culture flask, are washed with phosphate buffer and then removed from the surface of the flask by application of trypsin-ethylenediamine tetraacetic acid (Trypsin-EDTA; 0.25%) solution, passaged, counted and seeded on appropriate plates before each experiment. Cells are treated with a total of 45 2-indolinone compounds (5) at concentrations of 0.1, 1, 5 and 10 μM. Stock compounds are prepared in 1 ml dimethylsulfoxide (DMSO) and 4 different dilutions were prepared with medium and performed to the cells. Control group cells are treated with DMSO at a similar concentration to the experimental groups.
(§3) MTT (3-(4,5-dimethylthiazol-2-yl)-2,5-diphenyl-2H-tetrazolium bromide) colorimetric assay provides quantitation of viable cells with ongoing mitochondrial activity in culture medium. According to the standard procedure in cell culture conditions, cells are maintained in RPMI-1640 and DMEM culture media containing 10% FBS and 1% penicillin/streptomycin. The trypan blue test is used for cell counts.
(§4) The effects of 45 2-indolinone compounds (5) on cell viability in all cancer cell lines are investigated by MTT assay. Cells are seeded in a 96-well flat bottom plate with 5000 cells in each well and 2-indolinone compounds (5) at concentrations of 0.1, 1, 5 and 10 μM are performed to the cells the next day. After 48 and/or 72 hours following treatment with 2-indolinone compounds, 50 μl of the supernatant is slowly discarded (as it was acid medium) and MTT at a concentration of 5 mg/ml is added to each well in a volume of 10 μl. After incubation for 4 hours, the formazan crystals formed in the wells are dissolved by adding 100 μl DMSO and the optical density is read at 570 nm test wavelength and 630 nm reference wavelength. Cell viability is expressed as % cell viability by comparing the absorbance of control and test wells. IC50 value is calculated from the dose-response curves prepared for each compound. In addition, the possible DMSO effect is eliminated by preparing negative control wells compatible with the amount of DMSO contained in the compounds. To understand the reaction of the compounds with MTT, cell-free (MTT+compounds) negative controls are prepared at the concentrations used (Mosmann, 1983). […] The absorbance values obtained are compared to the control and statistically evaluated by unpaired t-test using “Graphpad Prism 5.04” software. “P<0.05” is accepted as significant. When evaluating cytotoxic effects, the present inventors aim for the inventive compounds to be effective in cancer cells and ineffective in healthy cells. The inventive compounds have also been compared with sunitinib, one of the reference chemotherapy drugs currently used in treatment.

MCF-7 cells = test: MTT cytotoxicity, breast cancer cells MCF-7; format: cell-based, human; settings: for IC50: MTT
Text: as §1, §2, §3, §4
(§5) Among the compounds of the present invention, those that killed cancer cells by at least 50% (p<0.05) are selected and tested whether a 10-fold concentration of the M concentration at the IC50 value is toxic to normal healthy cells.

HCT-116 cells = test: MTT cytotoxicity, colon cancer cells HCT-116; format: cell-based, human
Text: as §1, §2, §3, §4

A549 cells = test: MTT cytotoxicity, lung cancer cells A549; format: cell-based, human
Text: as §1, §2, §3, §4, §5

MCF-10F/Beas2b cells = test: MTT cytotoxicity, healthy cells MCF-10F/Beas2b; format: cell-based, human; settings: for Selectivite Index (SI), MCF-10F/Beas2b (Table 1): MCF-10F/Beas2b vs breast or kidney cancer cells, cancer line not given; for IC50: Homo sapiens, MTT
Text: as §1, §2, §3, §4, §5

MDA-MB-231 cells = test: MTT cytotoxicity, breast cancer cells MDA-MB-231; format: cell-based, human; settings: for IC50: MTT, no * mark (incubation time not given)
Text: as §1, §2, §3, §4, §5

HUVEC cells = test: MTT cytotoxicity, healthy cells HUVEC; format: cell-based, human; settings: for Selectivite Index (SI), HUVEC (Table 1): HUVEC vs breast or kidney cancer cells, cancer line not given; for IC50: MTT
Text: as §1, §2, §3, §4, §5

human cancer cells = test: MTT cell viability, human cancer cells overall; format: cell-based; settings: cell line as discussed at the place
Text: as §1, §2, §3
The effects of 45 2-indolinone compounds (5) on cell viability in all cancer cell lines are investigated by MTT assay. Cells are seeded in a 96-well flat bottom plate with 5000 cells in each well and 2-indolinone compounds (5) at concentrations of 0.1, 1, 5 and 10 μM are performed to the cells the next day. After 48 and/or 72 hours following treatment with 2-indolinone compounds, 50 μl of the supernatant is slowly discarded (as it was acid medium) and MTT at a concentration of 5 mg/ml is added to each well in a volume of 10 μl. After incubation for 4 hours, the formazan crystals formed in the wells are dissolved by adding 100 μl DMSO and the optical density is read at 570 nm test wavelength and 630 nm reference wavelength. Cell viability is expressed as % cell viability by comparing the absorbance of control and test wells. IC50 value is calculated from the dose-response curves prepared for each compound. In addition, the possible DMSO effect is eliminated by preparing negative control wells compatible with the amount of DMSO contained in the compounds. To understand the reaction of the compounds with MTT, cell-free (MTT+compounds) negative controls are prepared at the concentrations used (Mosmann, 1983). […] The absorbance values obtained are compared to the control and statistically evaluated by unpaired t-test using “Graphpad Prism 5.04” software. “P<0.05” is accepted as significant. When evaluating cytotoxic effects, the present inventors aim for the inventive compounds to be effective in cancer cells and ineffective in healthy cells. […]

A498 cells = test: MTT cytotoxicity, kidney cancer cells A498; format: cell-based, human; settings: MTT
Text: as §1, §2, §3, §4, §5

CAKI-1 cells = test: MTT cytotoxicity, kidney cancer cells CAKI-1; format: cell-based, human
Text: as §1, §2, §3, §4, §5

HT-29 cells = test: MTT cytotoxicity, colon cancer cells HT-29; format: cell-based, human; settings: MTT
Text: as §1, §2, §3, §4

[1] = MTT, no * mark (incubation time not specified)
[2] = no * mark (incubation time not specified)
[3] = read-out: IC50, MDA-MB-231 (breast)
[4] = *: effective 72 hours after incubation

SMILES | IC50 (MIAPaCa-2 cells; [1]) [nM] | IC50 (MCF-7 cells; [2]) [nM] | IC50 (HCT-116 cells; [2]) [nM] | IC50 (A549 cells; [2]) [nM] | Selectivite Index (SI), MCF-10F/Beas2b (Table 1) (MCF-10F/Beas2b cells) | IC50 (MDA-MB-231 cells; [3]) [nM] | Selectivite Index (SI), HUVEC (Table 1) (HUVEC cells) | potency/selectivity compared with sunitinib malate (human cancer cells) | IC50 (A498 cells; [2]) [nM] | IC50 (CAKI-1 cells; [2]) [nM] | IC50 (HT-29 cells; [2]) [nM] | also measured
Cc1cccc(CN2C(=O)/C(=C\c3c[nH]c4ccccc34)c3cccc(Cl)c32)c1 [27C] | > 10000 | 3670 | > 10000 | > 10000 | > 12.34 | 810 | 1.28 | much more potent and have higher SI values than the reference compound sunitinib malate | 2400 | > 10000 | > 10000 | selectivity index (SI) (MDA-MB-231 cells; MCF-10F vs MDA-MB-231): > 12; IC50 (HUVEC cells; [4]): 1040 nM
O=C1/C(=C\c2c[nH]c3ccccc23)c2cccc(Cl)c2N1Cc1ccccc1 [22C] | > 10000 | 570 | > 10000 | > 10000 | > 17.54 | 8400 | > 17.54 | much more potent and have higher SI values than the reference compound sunitinib malate | > 10000 | 2490 | > 10000 | selectivity index (SI) (MCF-7 cells; MCF-10F vs MCF-7): > 17; IC50 (HUVEC cells; [2]): > 10000 nM
O=C1/C(=C\c2c[nH]c3ccccc23)c2cc(Cl)ccc2N1Cc1ccc(F)cc1 [17C] |  |  |  |  |  |  |  | more potent than sunitinib malate |  |  |  | IC50 (MIAPaCa-2 cells; Homo sapiens, MIA PaCa-2, MTT, no * mark (incubation time not given)): 1320 nM; IC50 (MCF-7 cells; Homo sapiens, MCF7, *: effective 72 hours after incubation): 4760 nM; IC50 (HCT-116 cells; Homo sapiens, HCT-116, no * mark (incubation time not given)): 930 nM; IC50 (A549 cells; Homo sapiens, A549, no * mark (incubation time not given)): 1110 nM; IC50 (MCF-10F/Beas2b cells; [4]): 2660 nM; IC50 (MCF-10F/Beas2b cells; no * mark (incubation time not given)): 2660 nM; cytotoxicity in healthy cells (MCF-10F/Beas2b cells; healthy cells): high in healthy cells; IC50 (MDA-MB-231 cells; Homo sapiens, MDA-MB-231, read-out: IC50, MDA-MB-231 (breast)): > 10000 nM; IC50 (HUVEC cells; Homo sapiens, HUVEC, no * mark (incubation time not given)): 1240 nM; IC50 (A498 cells; Homo sapiens, A498, 72 h, *: effective 72 hours after incubation): 770 nM; IC50 (CAKI-1 cells; Homo sapiens, CAKI-1, *: effective 72 hours after incubation): 4620 nM; IC50 (HT-29 cells; Homo sapiens, HT-29, no * mark (incubation time not given)): 2070 nM
